This passage reports EC50 results from patent US11666577B2 (National Institute of Biological Sciences, Beijing, priority 2018, dated 2023).

The test system of the experiment is HT-29 cells. In words: Necroptosis assay (TNF-α/Smac mimetic/z-VAD, TSZ-induced) in HT-29 cells. It is filed as cell-based, human. Here is the method:
Methods: HT-29 cells were cultured in McCoy's 5 A culture medium (Invitrogen). On day one, HT-29 cells were plated in 96-well assay plates at density of 2,500-3,500 cells per well. On day two, necrosis were induced by adding 20 ng/ml TNF-α (T), 100 nM Smac mimetic (S), and […] z-VAD (Z). At the same time, 10 mM compound from a chemical library of ˜200,000 compounds was delivered into each well. After 24 hrs treatment, cell viability was determined by measuring ATP level using the Cell Titer-Glo Luminescent Cell Viability Assay kit. A CellTiter-Glo Assay (Promega) was performed according to the manufacturer's instructions. Luminescence was recorded with a PerkinElmer EnSpire Multimode Plate Reader. Survived cells were normalized to those cells treated with DMSO. RIPA-56 was used as a positive control for screening necroptosis inhibitors. Data are represented as mean±standard deviation of duplicates.
In previous work, we performed a cell-based high-throughput screen to identify necroptosis inhibitors using a chemical library of ˜200,000 compounds and identified multiple compounds that protected human colorectal adenocarcinoma (HT-29) cells from TNF-α/Smac mimetic/Z-VAD-fmk (TSZ)-induced necroptosis.^[4]
The anti-necroptosis potency of compounds 7-12 and 14-18 was evaluated in the HT-29 cell line; the EC50 values are shown in Table B.
[a] Necroptosis was induced in HT-29 cells for 24 h; the EC50 values given here are the mean values of at least three independent analyses.

[1] abbreviates: Series 1 (Table 1) compounds 1-146, HT-29 cells, TNF-α/Smac mimetic/z-VAD, 24 hrs, cell viability by ATP level, read-out: Series 1 compound necroptosis activity.
[2] abbreviates: Homo sapiens, Series 2 (Table 2) compounds, HT-29 necroptosis assay, read-out: Series 2 compound necroptosis activity.
The mark [3] stands for this setting: Homo sapiens, Series 1 (Table 1) compounds 1-146, HT-29 cells, TNF-α/Smac mimetic/z-VAD, 24 hrs, cell viability by ATP level, read-out: Series 1 compound necroptosis activity.

The structures appear in SMILES notation. Where two headings read alike, the source gives them in different places.

On to `Cn1c(=O)c2c(nc(S(=O)(=O)Cc3ccc(C#N)cc3)n2C)n(C)c1=O` [Compound 44, 4-((1,3,7-trimethyl-2,6-dioxo-2,3,6,7-tetrahydro-1H-purin-8-ylsulfonyl)methyl)benzonitrile], for which, under setting [1], the EC50 was 1 to 1000 µM.

For the compound `Cn1c(=O)c2c(nc(S(C)(=O)=O)n2C)n(CC#Cc2cc(NC(=O)C3CC3)cc(C(F)(F)F)c2)c1=O` [Compound 44], the EC50 under setting [2] is 0.001 to 0.1 µM.

With `Cn1c(=O)c2c(nc(S(=O)(=O)Cc3ccccc3C(N)=O)n2C)n(C)c1=O` [Compound 45, 2-((1,3,7-trimethyl-2,6-dioxo-2,3,6,7-tetrahydro-1H-purin-8-ylsulfonyl)methyl)benzamide], under setting [1], the EC50 was 1 to 1000 µM.

Turning to `Cn1c(=O)c2c(nc(S(=O)(=O)CC3CC3)n2C)n(CC#Cc2cc(NC(=O)C3CC3)nc(C(F)(F)F)c2)c1=O` [Compound 45], the EC50 under setting [2] lay within 0.001 to 0.1 µM.

For the compound `Cn1c(=O)c2c(nc(S(=O)(=O)Cc3cccc(C(N)=O)c3)n2C)n(C)c1=O` [Compound 46, 3-((1,3,7-trimethyl-2,6-dioxo-2,3,6,7-tetrahydro-1H-purin-8-ylsulfonyl)methyl)benzamide], the EC50 under setting [1] lay in the range of 1 to 1000 µM.

For `Cn1c(=O)c2c(nc(S(=O)(=O)CC3CC3)n2C)n(CC#Cc2cc(NC(=O)C3CC3)cc(C(F)(F)F)c2)c1=O` [Compound 46], under setting [2], the EC50 lay in the range of 0.1 to 10 µM.

For `Cn1c(=O)c2c(nc(S(=O)(=O)Cc3ccc(C(N)=O)cc3)n2C)n(C)c1=O` [Compound 47, 4-((1,3,7-trimethyl-2,6-dioxo-2,3,6,7-tetrahydro-1H-purin-8-ylsulfonyl)methyl)benzamide], the EC50 under setting [1] was 1 to 1000 µM.

Turning to `Cn1c(=O)c2c(nc(S(=O)(=O)Cc3ccccn3)n2C)n(C)c1=O` [Compound 48, 1,3,7-trimethyl-8-(pyridin-2-ylmethylsulfonyl)-1H-purine-2,6(3H,7H)-dione], under setting [1], the EC50 lay in the range of 1 to 1000 µM.

As to `Cn1c(=O)c2c(nc([S+](C)[O-])n2C)n(CC#Cc2cc(NC(=O)C3CC3)nc(C(F)(F)F)c2)c1=O` (centres unmarked) [Compound 48], the EC50 under setting [2] is 0.1 to 10 µM.

As to `Cn1c(=O)c2c(nc(S(=O)(=O)Cc3cccc[n+]3[O-])n2C)n(C)c1=O` [Compound 49, 2-((1,3,7-trimethyl-2,6-dioxo-2,3,6,7-tetrahydro-1H-purin-8-ylsulfonyl)methyl)pyridine 1-oxide], the EC50 under setting [1] is 1 to 1000 µM.

In the case of `Cn1c(=O)c2c(nc([S+](C)[O-])n2C)n(CC#Cc2cc(NC(=O)C3CC3)cc(C(F)(F)F)c2)c1=O` (centres unmarked) [Compound 49], the EC50 under setting [2] was over 10 µM.

Turning to `Cn1c(=O)c2c(nc(S(=O)(=O)Cc3cccnc3)n2C)n(C)c1=O` [Compound 50, 1,3,7-trimethyl-8-(pyridin-3-ylmethylsulfonyl)-1H-purine-2,6(3H,7H)-dione], the EC50 under setting [1] was 1 to 1000 µM.

Regarding `CCS(=O)(=O)c1nc2c(c(=O)n(C)c(=O)n2CC#Cc2cc(NC(=O)C3CC3)cc(NC(=O)C3CC3)c2)n1C` [Compound 50], the EC50 under setting [2] was 0.001 to 0.1 µM.

In the case of `Cn1c(=O)c2c(nc(S(=O)(=O)Cc3ccc[n+]([O-])c3)n2C)n(C)c1=O` [Compound 51, 3-((1,3,7-trimethyl-2,6-dioxo-2,3,6,7-tetrahydro-1H-purin-8-ylsulfonyl)methyl)pyridine 1-oxide], the EC50 under setting [1] is 1 to 1000 µM.

For `Cn1c(=O)c2c(nc(S(=O)(=O)Cc3cc[n+]([O-])cc3)n2C)n(C)c1=O` [Compound 53, 4-((1,3,7-trimethyl-2,6-dioxo-2,3,6,7-tetrahydro-1H-purin-8-ylsulfonyl)methyl)pyridine 1-oxide], under setting [1], the EC50 was 1 to 1000 µM.

With `Cn1c(=O)c2c(nc(S(=O)(=O)Cc3cccc(Cl)c3Cl)n2C)n(C)c1=O` [Compound 54, 8-(2,3-dichlorobenzylsulfonyl)-1,3,7-trimethyl-1H-purine-2,6(3H,7H)-dione], under setting [1], the EC50 was 1 to 1000 µM.

Regarding `COCCOc1cc(C#CCn2c(=O)n(C)c(=O)c3c2nc([S+](C)[O-])n3C)cc(NC(=O)C2CC2)c1` (centres unmarked) [Compound 54], the EC50 under setting [2] lay within 0.001 to 0.1 µM.

On to `Cn1c(=O)c2c(nc(S(=O)(=O)Cc3cc(Cl)ccc3Cl)n2C)n(C)c1=O` [Compound 55, 8-(2,5-dichlorobenzylsulfonyl)-1,3,7-trimethyl-1H-purine-2,6(3H,7H)-dione], for which the EC50 under setting [3] lay in the range of 1 to 100 µM.

With `Cn1c(=O)c2c(nc(S(=O)(=O)NCc3ccccc3)n2C)n(C)c1=O` [Compound 55], the EC50 under setting [2] lay within 10 to 100 µM.

On to `Cn1c(=O)c2c(nc(S(=O)(=O)Cc3cc(Cl)cc(Cl)c3)n2C)n(C)c1=O` [Compound 56, 8-(3,5-dichlorobenzylsulfonyl)-1,3,7-trimethyl-1H-purine-2,6(3H,7H)-dione], for which the EC50 under setting [3] fell in the range of 1 to 100 µM.

For the compound `Cn1c(=O)c2c(nc(S(=O)(=O)Cc3c(Cl)cccc3Cl)n2C)n(C)c1=O` [Compound 57, 8-(2,6-dichlorobenzylsulfonyl)-1,3,7-trimethyl-1H-purine-2,6(3H,7H)-dione], under setting [1], the EC50 fell in the range of 1 to 1000 µM.

Consider `COc1ccc(OC)c(CS(=O)(=O)c2nc3c(c(=O)n(C)c(=O)n3C)n2C)c1` [Compound 58, 8-(2,5-dimethoxybenzylsulfonyl)-1,3,7-trimethyl-1H-purine-2,6(3H,7H)-dione], for which the EC50 under setting [3] was 1 to 10 µM.

Regarding `CCCNS(=O)(=O)c1nc2c(c(=O)n(C)c(=O)n2C)n1C` [Compound 58], under setting [2], the EC50 lay within 10 to 100 µM.

With `COc1cc(CS(=O)(=O)c2nc3c(c(=O)n(C)c(=O)n3C)n2C)cc(OC)c1` [Compound 59, 8-(3,5-dimethoxybenzylsulfonyl)-1,3,7-trimethyl-1H-purine-2,6(3H,7H)-dione], the EC50 (read-out: Series 1 compound necroptosis activity) was 1 to 1000 µM.

As for `COc1cccc(CS(=O)(=O)c2nc3c(c(=O)n(C)c(=O)n3C)n2C)c1OC` [Compound 61, 8-(2,3-dimethoxybenzylsulfonyl)-1,3,7-trimethyl-1H-purine-2,6(3H,7H)-dione], under setting [1], the EC50 fell in the range of 1 to 1000 µM.

In the case of `COc1cccc(OC)c1CS(=O)(=O)c1nc2c(c(=O)n(C)c(=O)n2C)n1C` [Compound 62, 8-(2,6-dimethoxybenzylsulfonyl)-1,3,7-trimethyl-1H-purine-2,6(3H,7H)-dione], under setting [1], the EC50 fell in the range of 1 to 1000 µM.

`COc1c(Cl)cccc1CS(=O)(=O)c1nc2c(c(=O)n(C)c(=O)n2C)n1C` [Compound 63, 8-(3-chloro-2-methoxybenzylsulfonyl)-1,3,7-trimethyl-1H-purine-2,6(3H,7H)-dione]: the EC50 under setting [1] was in the range of 1 to 1000 µM.

For the compound `Cn1c(=O)c2c(nc(S(=O)(=O)Cc3ccc(Br)c(Cl)c3)n2C)n(C)c1=O` [Compound 64, 8-(4-bromo-3-chlorobenzylsulfonyl)-1,3,7-trimethyl-1H-purine-2,6(3H,7H)-dione], the EC50 under setting [1] was in the range of 1 to 1000 µM.

Turning to `CCOc1ccc(OC)cc1CS(=O)(=O)c1nc2c(c(=O)n(C)c(=O)n2C)n1C` [Compound 65, 8-(2-ethoxy-5-methoxybenzylsulfonyl)-1,3,7-trimethyl-1H-purine-2,6(3H,7H)-dione], under setting [1], the EC50 fell in the range of 1 to 1000 µM.

Consider `CCCOc1ccc(OC)cc1CS(=O)(=O)c1nc2c(c(=O)n(C)c(=O)n2C)n1C` [Compound 66, 8-(5-methoxy-2-propoxybenzylsulfonyl)-1,3,7-trimethyl-1H-purine-2,6(3H,7H)-dione], for which, under setting [1], the EC50 was in the range of 1 to 1000 µM.

Turning to `CCOc1ccc(OC)c(CS(=O)(=O)c2nc3c(c(=O)n(C)c(=O)n3C)n2C)c1` [Compound 67, 8-(5-ethoxy-2-methoxybenzylsulfonyl)-1,3,7-trimethyl-1H-purine-2,6(3H,7H)-dione], the EC50 under setting [1] is 1 to 1000 µM.

As for `Cn1c(=O)c2c(nc3n2CCS3(=O)=O)n(CC#Cc2cccc(NCCN3CCOCC3)c2)c1=O` [Compound 67], the EC50 under setting [2] was in the range of 0.001 to 0.1 µM.
